≈ marks a conversion by molar mass, not a printed value. Calls of active or inactive are those of the source. The calls are words filed in the database; no cut-off is given here.
What was measured:
[1] = test system: Staphylococcus aureus; assay: Antibacterial activity against Staphylococcus aureus ATCC 29213 assessed as inhibition of bacterial growth incubated for 96 hrs by broth microdilution method; type: functional
[2] = test system: Streptococcus pneumoniae; assay: Antibacterial activity against Streptococcus pneumoniae ATCC 49619 assessed as inhibition of bacterial growth incubated for 96 hrs by broth microdilution method; type: functional
[3] = test system: Escherichia coli; assay: Antibacterial activity against Escherichia coli ATCC 25922 assessed as inhibition of bacterial growth incubated for 96 hrs by broth microdilution method; type: functional
[4] = test system: Staphylococcus aureus; assay: Antibacterial activity against methicillin-resistant Staphylococcus aureus ATCC43300 assessed as inhibition of bacterial growth incubated for 96 hrs by broth microdilution method; type: functional
[5] = test system: Staphylococcus epidermidis; assay: Antibacterial activity against methicillin-resistant Staphylococcus epidermidis ATCC 51625 assessed as inhibition of bacterial growth incubated for 96 hrs by broth microdilution method; type: functional
[6] = target: T1, 70S ribosome (Staphylococcus aureus) (UniProt Q2FW31+P0A0H0+Q2FW30+Q2FW19+Q2FYU5+Q2G2Q1+Q2FZ45+Q2FW15+Q2G111+Q2FW10+Q2FXY6+Q2FXZ7+Q2FZ25+Q2FW12+Q2FXK6+Q2FW23+Q2G113+P48940+Q2FW20+Q2FW39+Q2FYF9+Q2G0N9+P0A0F4+Q2FW38+Q2FW16+P0A0F8+Q2FW13+Q2FW33+Q2FW22+Q2FZ42+Q2G0P0+Q2FXQ1+Q2FXS8+Q2FW11+Q2FW08+Q2FW17+Q2FXT0+Q2FZ60+Q2FW14+P60430+P0A0G2+Q2FWD8+Q2FZF1+Q2FYU6+Q2FY22+Q2FUQ0+Q2FXQ0+Q2FW29+Q2FW06+Q2FW07+Q2FW18+Q2FW21+P48860+Q2G2T3); assay: Inhibition of ribosomal peptidyl transferase centre in methicillin-resistant Staphylococcus aureus ATCC43300 assessed as inhibition of bacterial cell division at 4XMIC by scanning electron microscopy; type: functional
[7] = test system: Staphylococcus aureus; assay: Bactericidal activity against methicillin-resistant Staphylococcus aureus ATCC 43300 assessed as bacterial killing at 6XMIC incubated for 96 hrs in broth followed by culturing on agar plate for 12 hrs by time-kill kinetics analysis; type: functional; conditions: time 108 hrs
[8] = test system: HepG2; assay: Cytotoxicity against human HepG2 cells assessed as reduction in cell survival at 250 ug/ml incubated for 6 hrs by CCK8 assay; type: toxicity, cell-based; conditions: hepg2, 6 h, dose 250 µg/ml
[9] = Toxicity against zebrafish embryo assessed as teratogenic effect at 128 ug/ml measured after 96 hrs by microscopic analysis; parameters: species or system Danio rerio; conditions: in vivo, dose 128 µg/ml
[10] = test system: HEK293; assay: Cytotoxicity against HEK293 cells assessed as reduction in cell survival upto 120 ug/ml incubated for 6 hrs by CCK8 assay; type: toxicity, cell-based; conditions: human, hek293, 6 h, dose < 120 µg/ml
[11] = target: T1, 70S ribosome (Staphylococcus aureus); assay: Inhibition of ribosomal peptidyl transferase centre in methicillin-resistant Staphylococcus aureus ATCC43300 assessed as bacterial cell membrane damage at 4XMIC by scanning electron microscopy; type: functional
[12] = test system: Staphylococcus aureus; assay: Antibacterial activity against methicillin-resistant Staphylococcus aureus ATCC43300 assessed as inhibition of bacterial growth measured after 21 days; type: functional; conditions: ATCC43300, 504 h, time 21 day
[13] = Toxicity against Zebrafish assessed as reduction of survival of embryos measured after 96 hrs; parameters: species or system Danio rerio; conditions: in vivo
[14] = test system: Staphylococcus aureus; assay: Antibacterial activity against methicillin-resistant Staphylococcus aureus ATCC43300 assessed as inhibition of bacterial growth measured on day 20; type: functional; conditions: ATCC43300, 480 h, time 20 day
[15] = test system: Staphylococcus aureus; assay: In vivo antibacterial activity against methicillin-resistant Staphylococcus aureus ATCC43300 infected in Kunming mouse assessed as increase in animal survival rate administered ip at 1 hr post-infection; type: functional; conditions: ATCC43300, 1 h
[16] = test system: Staphylococcus aureus; assay: Antibacterial activity against methicillin-resistant Staphylococcus aureus ATCC43300 assessed as inhibition of bacterial growth measured on day 8; type: functional; conditions: ATCC43300, 192 h, time 8 day

SMILES: C=C[C@]1(C)C[C@@H](OC(=O)CSc2ccc(OCC(=O)N3CCS(=O)(=O)CC3)cc2)[C@]2(C)[C@H](C)CC[C@]3(CCC(=O)[C@H]32)[C@@H](C)[C@@H]1O
- MIC [1]: < 0.031 µg/mL
- MIC [2]: 0.25 µg/mL (≈ 0.378 µM)
- MIC [3]: > 64 µg/mL
- MIC [4]: < 0.031 µg/mL
- MIC [5]: < 0.031 µg/mL

SMILES: C=C[C@]1(C)C[C@@H](OC(=O)CSc2ccc(OCc3ccc(C(=O)OC(C)(C)C)cc3)cc2)[C@]2(C)[C@H](C)CC[C@]3(CCC(=O)[C@H]32)[C@@H](C)[C@@H]1O
- MIC [1]: 4 µg/mL (≈ 5.91 µM)
- MIC [2]: 8 µg/mL (≈ 11.8 µM)
- MIC [3]: > 64 µg/mL
- MIC [4]: 32 µg/mL (≈ 47.3 µM)
- MIC [5]: 8 µg/mL (≈ 11.8 µM)

SMILES: C=C[C@]1(C)C[C@@H](OC(=O)CSc2ccccc2OCc2ccc(C(=O)OC(C)(C)C)cc2)[C@]2(C)[C@H](C)CC[C@]3(CCC(=O)[C@H]32)[C@@H](C)[C@@H]1O
- MIC [1]: 16 µg/mL (≈ 23.6 µM)
- MIC [2]: 16 µg/mL (≈ 23.6 µM)
- MIC [3]: > 64 µg/mL
- MIC [4]: 32 µg/mL (≈ 47.3 µM)
- MIC [5]: 16 µg/mL (≈ 23.6 µM)

SMILES: C=C[C@]1(C)C[C@@H](OC(=O)CSc2cccc(OCc3ccc(-c4ccccc4C#N)cc3)c2)[C@]2(C)[C@H](C)CC[C@]3(CCC(=O)[C@H]32)[C@@H](C)[C@@H]1O
- MIC [1]: 4 µg/mL (≈ 5.9 µM)
- MIC [2]: 2 µg/mL (≈ 2.95 µM)
- MIC [3]: > 64 µg/mL
- MIC [4]: 2 µg/mL (≈ 2.95 µM)
- MIC [5]: 8 µg/mL (≈ 11.8 µM)

SMILES: C=C[C@]1(C)C[C@@H](OC(=O)CSc2ccccc2OCCCC)[C@]2(C)[C@H](C)CC[C@]3(CCC(=O)[C@H]32)[C@@H](C)[C@@H]1O
- MIC [1]: 0.5 µg/mL (≈ 0.921 µM)
- MIC [2]: 0.5 µg/mL (≈ 0.921 µM)
- MIC [3]: > 64 µg/mL
- MIC [4]: 0.5 µg/mL (≈ 0.921 µM)
- MIC [5]: 0.25 µg/mL (≈ 0.461 µM)

SMILES: C=C[C@]1(C)C[C@@H](OC(=O)CSc2cccc(OCC#CC)c2)[C@]2(C)[C@H](C)CC[C@]3(CCC(=O)[C@H]32)[C@@H](C)[C@@H]1O
- MIC [1]: 0.125 µg/mL (≈ 0.232 µM)
- MIC [2]: < 0.031 µg/mL
- MIC [3]: > 64 µg/mL
- MIC [4]: 0.125 µg/mL (≈ 0.232 µM)
- MIC [5]: 0.125 µg/mL (≈ 0.232 µM)

SMILES: C=CCCOc1ccccc1SCC(=O)O[C@@H]1C[C@@](C)(C=C)[C@@H](O)[C@H](C)[C@]23CCC(=O)[C@H]2[C@@]1(C)[C@H](C)CC3
- MIC [1]: < 0.031 µg/mL
- MIC [2]: < 0.031 µg/mL
- MIC [3]: > 64 µg/mL
- MIC [4]: 0.125 µg/mL (≈ 0.231 µM)
- MIC [5]: 0.031 µg/mL (≈ 0.0573 µM)

SMILES: C=C[C@]1(C)C[C@@H](OC(=O)CSc2ccc(OCc3ccc(-c4ccccc4C#N)cc3)cc2)[C@]2(C)[C@H](C)CC[C@]3(CCC(=O)[C@H]32)[C@@H](C)[C@@H]1O
- MIC [1]: 4 µg/mL (≈ 5.9 µM)
- MIC [2]: 2 µg/mL (≈ 2.95 µM)
- MIC [3]: > 64 µg/mL
- MIC [4]: 2 µg/mL (≈ 2.95 µM)
- MIC [5]: 4 µg/mL (≈ 5.9 µM)

SMILES: C=C[C@]1(C)C[C@@H](OC(=O)CSc2cccc(OCc3ccc(C)cc3)c2)[C@]2(C)[C@H](C)CC[C@]3(CCC(=O)[C@H]32)[C@@H](C)[C@@H]1O
- MIC [1]: 16 µg/mL (≈ 27.1 µM)
- MIC [2]: 16 µg/mL (≈ 27.1 µM)
- MIC [3]: > 64 µg/mL
- MIC [4]: 16 µg/mL (≈ 27.1 µM)
- MIC [5]: 32 µg/mL (≈ 54.2 µM)

SMILES: C=C[C@]1(C)C[C@@H](OC(=O)CSc2cccc(OCC(=O)N3CCS(=O)(=O)CC3)c2)[C@]2(C)[C@H](C)CC[C@]3(CCC(=O)[C@H]32)[C@@H](C)[C@@H]1O
- inhibition [6]: Active
- Activity [7]: 99.99%
- Activity [8]: Toxic
- MIC [1]: < 0.031 µg/mL
- MIC [2]: 0.125 µg/mL (≈ 0.189 µM)
- Activity [9]: Non-toxic
- Activity [10]: Toxic
- inhibition [11]: Active
- MIC [3]: > 64 µg/mL
- MIC [4]: < 0.031 µg/mL
- MIC [12]: 4 µg/mL (≈ 6.04 µM)
- MIC [5]: < 0.031 µg/mL
- LC50 at 96 h [13]: 149 µg/mL (≈ 225 µM)

SMILES: C=C[C@]1(C)C[C@@H](OC(=O)CSCCN(CC)CC)[C@]2(C)[C@H](C)CC[C@]3(CCC(=O)[C@H]32)[C@@H](C)[C@@H]1O [TIAMULIN]
- Activity [8]: Toxic
- MIC [1]: 0.5 µg/mL (≈ 1.01 µM)
- MIC [14]: 32 µg/mL (≈ 64.8 µM)
- MIC [2]: 0.5 µg/mL (≈ 1.01 µM)
- Activity [10]: Toxic
- ED50 [15]: 11.4 mg/kg
- MIC [3]: > 64 µg/mL
- MIC [4]: 0.5 µg/mL (≈ 1.01 µM)
- MIC [16]: 8 µg/mL (≈ 16.2 µM)
- MIC [5]: 0.25 µg/mL (≈ 0.506 µM)
- LC50 at 96 h [13]: 24 µg/mL (≈ 48.6 µM)

SMILES: C=C[C@]1(C)C[C@@H](OC(=O)CSc2ccc(OCCCC)cc2)[C@]2(C)[C@H](C)CC[C@]3(CCC(=O)[C@H]32)[C@@H](C)[C@@H]1O
- MIC [1]: 2 µg/mL (≈ 3.68 µM)
- MIC [2]: 0.5 µg/mL (≈ 0.921 µM)
- MIC [3]: > 64 µg/mL
- MIC [4]: 1 µg/mL (≈ 1.84 µM)
- MIC [5]: 0.5 µg/mL (≈ 0.921 µM)
